Tests used:
3T3-L1 pre-adipocytes = experiment: Glucose uptake (2-NBDG) by 3T3-L1 pre-adipocytes; type: cell-based
Description: To validate the relevance of this C. elegans data to a mammalian system, F43 was tested for glucose uptake in 3T3-L1 pre-adipocytes using a fluorescent derivative of glucose, 2-NBD-deoxyglucose (Moon et al., “A Novel Microtubule Destabilizing Entity from Orthogonal Synthesis of Triazine Library and Zebrafish Embryo Screening,” J. Am. Chem. Soc. 124:11608-11609 (2002), which is hereby incorporated by reference in its entirety).
3T3-L1 pre-adipocytes, were grown in DMEM (Dulbecco's Modified Eagle Medium Media) containing 1% antibiotics, and 10% heat-inactivated newborn calf serum under a humidified 5% CO2 atmosphere. The cells were seeded in 48-well plates and allowed to adhere to the dish overnight. Cultures at 70-80% confluence were used for the chemical exposures. […] Fluorescence intensity was measured in a fluorescence micro-plate reader at λex=466 nm and λem=540 nm.
FIGS. 3A-B show the up-regulation of glucose uptake by 3T3-L1 pre-adipocytes upon treatment with Insulin, the TGBz compound F43, and the TGBz compound E3 as a control. […] Following incubation with the dye for 15 min. at 37° C., cells were washed with ice-cold PBS, and the fluorescence intensity was measured. The uptake of the fluorescent 2-NBDG was visualized by a Leica 2000 fluorescence microscope with excitation at 488 nm and long-pass detection at 530 nm and measured by a fluorescence microplate reader. […]

rabbit muscle GAPDH = target: T1, rabbit muscle GAPDH (Oryctolagus cuniculus, UniProt P46406); experiment: In vitro GAPDH inhibition assay (NADH fluorescence); type: biochemical; details: 0.2 mM GAP, 0.1 mM NAD+, pH 8.6; read-out: IC50 against GAPDH
T1 construct: host or cells: rabbit muscle
Description: Rabbit muscle GAPDH and glyceraldehydes-3-phosphate (GAP) were employed. The assay was performed in black polypropylene 96-well micro-titer plates using a 100 μl solution of 100 mM sodium phosphate at pH 8.6, 5 mM EDTA, 0.2 mM GAP, 0.1 mM NAD^+, 0.5 units of GAPDH in the presence of varying concentrations of compound. The reaction was initiated by addition of GAP. Amounts of produced NADH was monitored by a fluorescence plate reader, at λex=340 nm, λem=460 nm (ex=excitation, em=emission wave length) (FIG. 7).

[1] = test system: Daf-2 mutant C. elegans strain e1370; experiment: Dauer formation screen in Daf-2 mutant C. elegans; type: in vivo; details: L2 stage worms soaked in 100 μM compound, warmed to 25° C.
Description: The Daf-2 mutant C. elegans strain e1370 was grown on nematode growth media (NGM) agar plates with E. coli (OP50) under standard conditions at 16° C. C. elegans mutant strains were obtained from the Caenorhabditis Genetics Center. Twenty synchronized early L2 animals grown at 16° C. were soaked in 96-well plates containing 100 μM of compounds/2% OP50 culture/M9 buffer, and then incubated at 25° C. for 4 days.
TG-Bz library (1120 members) compounds were screened in L2 stage worms grown at 16° C. by soaking in a 100 μM chemical solution and were warmed up to 25° C., in which 100% of untreated Daf-2 mutant larvae enter dauer within 24 hours. […] E3 is the TGBz control compound (FIG. 2C).

T1 sequence (P46406 2-333 limits assumed): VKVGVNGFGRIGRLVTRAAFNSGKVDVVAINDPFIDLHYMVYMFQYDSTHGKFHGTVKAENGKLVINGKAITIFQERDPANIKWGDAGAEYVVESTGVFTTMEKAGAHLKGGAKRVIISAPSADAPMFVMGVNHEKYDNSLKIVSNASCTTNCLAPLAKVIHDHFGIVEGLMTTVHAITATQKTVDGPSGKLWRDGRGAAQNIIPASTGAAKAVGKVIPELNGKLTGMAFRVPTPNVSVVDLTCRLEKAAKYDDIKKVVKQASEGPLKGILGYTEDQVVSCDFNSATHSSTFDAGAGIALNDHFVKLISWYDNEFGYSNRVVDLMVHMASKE

O=C(NCCOCCOCCNc1nc(NCCc2ccc(O)c(O)c2)nc(Nc2ccccc2)n1)c1ccccc1 [F43]
glucose uptake (2-NBDG fluorescence) (3T3-L1 pre-adipocytes; 15 min incubation, 100 μM 2-NBDG, compound up to 10 μM): dose dependent glucose uptake was observed | glucose uptake on co-treatment with insulin (3T3-L1 pre-adipocytes; co-treatment with insulin (100 nM), 15 min): synergistic effect | IC50 (rabbit muscle GAPDH): 4 µM | effect on dauer formation [1]: inhibits dauer formation
